This note sets out measurements from BindingDB's records for doi:10.7270/Q29Z94WS (Warner-Lambert, 1995).

For orientation: IC50 means the midpoint of a concentration-inhibition curve. A high value points to weaker potency.

The first experiment addresses T1, Sterol O-acyltransferase 1 (Rattus norvegicus, UniProt O70536).
T1 sequence (O70536 whole entry): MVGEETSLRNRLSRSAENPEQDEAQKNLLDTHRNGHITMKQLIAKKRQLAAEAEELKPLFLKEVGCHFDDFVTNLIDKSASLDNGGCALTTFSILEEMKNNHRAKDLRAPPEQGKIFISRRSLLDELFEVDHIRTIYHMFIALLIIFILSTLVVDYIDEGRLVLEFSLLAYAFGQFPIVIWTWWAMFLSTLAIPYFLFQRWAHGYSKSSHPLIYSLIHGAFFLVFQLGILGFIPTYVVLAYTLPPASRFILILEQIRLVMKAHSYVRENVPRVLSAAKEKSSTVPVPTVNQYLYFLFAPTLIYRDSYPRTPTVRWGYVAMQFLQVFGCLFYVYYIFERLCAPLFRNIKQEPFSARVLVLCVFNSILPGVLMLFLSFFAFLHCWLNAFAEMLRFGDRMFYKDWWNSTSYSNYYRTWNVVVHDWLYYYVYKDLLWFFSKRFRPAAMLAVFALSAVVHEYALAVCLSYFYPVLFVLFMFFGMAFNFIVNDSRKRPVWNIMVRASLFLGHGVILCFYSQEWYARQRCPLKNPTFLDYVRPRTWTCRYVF
The experiment is described as follows: ChEBML_28484. As to the method:
(§1) Concentration required for the in vitro inhibition of Acyl coenzyme A:cholesterol acyltransferase (ACAT) in liver microsomes isolated from cholesterol-fed rats was determined
In turn, `CCCCCCCCCCCCn1nnc(C(C(=O)Nc2c(C(C)C)cccc2C(C)C)c2ccccc2)n1` (configuration not stated) [N-(2,6-Diisopropyl-phenyl)-2-(2-dodecyl-2H-tetrazol-5-yl)-2-phenyl-acetamide] showed an IC50 of 10 nM.

In turn, `CCCCCCCCCCCCn1nnnc1C(C(=O)Nc1c(C(C)C)cccc1C(C)C)c1ccccc1` (configuration not stated) gave an IC50 of 79 nM.

`CCCCCCCC[C@H](SCCCCCC)C(=O)Nc1c(SC)cc[n+](C)c1SC` had an IC50 of 160 nM.

For the molecule `CCCCCCCC[C@@H](SCCCCCC)C(=O)Nc1c(SC)cc[n+](C)c1SC`, the IC50 is 22 nM.

`CCCCCCCCCCCCn1nnnc1C(C(=O)Nc1c(OC)cc(OC)cc1OC)c1ccccc1` (configuration not stated): the IC50 is 52 nM.

For `CCCCCCCCCCCCn1nnc(C(C(=O)Nc2c(OC)cc(OC)cc2OC)c2ccccc2)n1` (configuration not stated) [2-(2-Dodecyl-2H-tetrazol-5-yl)-2-phenyl-N-(2,4,6-trimethoxy-phenyl)-acetamide], the IC50 amounted to 14 nM.

Another experiment deals with T1, Sterol O-acyltransferase 1. Described as §1.
In the case of `CCCCCCCCCCCCn1nnc(C(C(=O)Nc2c(OC)cc(OC)cc2OC)c2ccccc2)n1` (configuration not stated) [2-(2-Dodecyl-2H-tetrazol-5-yl)-2-phenyl-N-(2,4,6-trimethoxy-phenyl)-acetamide], the 50% inhibitory concentration (IC50) was determined as 24 nM.
